Source: patent US11198695B2, “Fused ring derivative having MGAT-2 inhibitory activity” (Shionogi & Co., Ltd., priority 2017, dated 2021)
Like-named read-outs stand apart in the source and are kept apart here.

Molecular target: recombinant human MGAT2 (Homo sapiens (Human), UniProt Q3SYC2)
Assay: Measurement of human MGAT2 inhibitory activity
Type: biochemical
Summary of the method: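 RapidFire ESI-MS read-out of the diolein/diolein-d5 peak ratio gave % inhibition, with no-enzyme and full-enzyme wells as 100% and 0%. Reactions ran 1 h at room temperature at pH 7.4 (phosphate, 2 mmol/L DTT), using Flag-tagged human MGAT2 membranes from Sf9 cells and a substrate solution of 30 μmol/L 2-oleoylglycerol and 10 μmol/L oleoyl-CoA.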

[1] = read-out: IC50 (concentration exhibiting 50% enzyme inhibition), Table 52
[2] = read-out: IC50 (concentration exhibiting 50% enzyme inhibition), Table 53

recombinant human MGAT2, sequence (Q3SYC2 whole entry): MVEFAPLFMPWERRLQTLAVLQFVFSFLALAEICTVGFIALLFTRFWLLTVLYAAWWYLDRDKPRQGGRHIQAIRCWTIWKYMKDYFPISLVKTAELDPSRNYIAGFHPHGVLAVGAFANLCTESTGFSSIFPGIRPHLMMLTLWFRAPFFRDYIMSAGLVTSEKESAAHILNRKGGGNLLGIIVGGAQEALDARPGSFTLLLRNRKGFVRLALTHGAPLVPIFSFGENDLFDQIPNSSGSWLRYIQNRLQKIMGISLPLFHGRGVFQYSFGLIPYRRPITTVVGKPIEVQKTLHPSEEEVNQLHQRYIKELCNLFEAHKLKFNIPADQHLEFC

Row | IC50 [1] [nM] | IC50 [2] [nM] | SMILES
1 | 3.6 |  | CS(=O)(=O)CC(=O)Nc1c2c(nn1-c1ccc(C#N)cn1)C[C@@]1(CCc3cc(C4CC4)ccc31)NC2=O [Compound I-242]
2 | 3.5 |  | CS(=O)(=O)CC(=O)Nc1c2c(nn1-c1ccc(C#N)cn1)C[C@]1(CCOc3cc(OCC(F)(F)F)ccc31)NC2=O [Compound I-243]
3 | 110 |  | COc1cccc(-n2nc3c(c2NC(=O)CS(C)(=O)=O)C(=O)N[C@@]2(CCc4cc(OCC(F)(F)F)ccc42)C3)c1 [Compound I-244]
4 | 530 |  | CS(=O)(=O)CC(=O)Nc1c2c(nn1-c1cccc(C#N)c1)C[C@]1(CCc3cc(OCC(F)(F)F)ccc31)NC2=O [Compound I-245]
5 | 24 |  | CS(=O)(=O)CC(=O)Nc1c2c(nn1-c1ccc3c(c1)CCC3)C[C@]1(CCc3cc(OCC(F)(F)F)ccc31)NC2=O [Compound I-246]
6 | 84 |  | CS(=O)(=O)CC(=O)Nc1c2c(nn1-c1ccc3c(c1)OC(F)(F)O3)C[C@]1(CCc3cc(OCC(F)(F)F)ccc31)NC2=O [Compound I-247]
7 | 240 |  | CS(=O)(=O)CC(=O)Nc1c2c(nn1-c1cccc(C3CC3)c1)C[C@]1(CCc3cc(OCC(F)(F)F)ccc31)NC2=O [Compound I-248]
8 | 3.5 |  | CS(=O)(=O)CC(=O)Nc1c2c(nn1CCC1CC1)C[C@@]1(CCc3cc(OCC(F)(F)F)cc(F)c31)NC2=O [Compound I-249]
9 | 150 |  | CCOCCn1nc2c(c1NC(=O)CS(C)(=O)=O)C(=O)N[C@@]1(CCc3cc(OCC(F)(F)F)ccc31)C2 [Compound I-250]
10 | 490 |  | COCCCCn1nc2c(c1NC(=O)CS(C)(=O)=O)C(=O)N[C@@]1(CCc3cc(OCC(F)(F)F)ccc31)C2 [Compound I-251]
11 | 13 |  | COCCCn1nc2c(c1NC(=O)CS(C)(=O)=O)C(=O)N[C@@]1(CCc3cc(OCC(F)(F)F)ccc31)C2 [Compound I-252]
12 | 95 |  | CS(=O)(=O)CC(=O)Nc1c2c(nn1CCCC#N)C[C@]1(CCc3cc(OCC(F)(F)F)ccc31)NC2=O [Compound I-254]
13 | 17 |  | CS(=O)(=O)CC(=O)Nc1c2c(nn1CCCCC(F)(F)F)C[C@]1(CCc3cc(OCC(F)(F)F)ccc31)NC2=O [Compound I-255]
14 | 160 |  | CS(=O)(=O)CC(=O)Nc1c2c(nn1CCC(F)(F)F)C[C@]1(CCc3cc(OCC(F)(F)F)ccc31)NC2=O [Compound I-256]
15 | 80 |  | CS(=O)(=O)CC(=O)Nc1c2c(nn1CC1CCCO1)C[C@]1(CCc3cc(OCC(F)(F)F)ccc31)NC2=O (stereo partly drawn) [Compound I-257]
16 | 120 |  | CS(=O)(=O)CC(=O)Nc1c2c(nn1CCC1CCOCC1)C[C@]1(CCc3cc(OCC(F)(F)F)ccc31)NC2=O [Compound I-258]
17 | 59 |  | CC1(C)CCC(Cn2nc3c(c2NC(=O)CS(C)(=O)=O)C(=O)N[C@@]2(CCc4cc(OCC(F)(F)F)ccc42)C3)O1 (stereo partly drawn) [Compound I-259]
18 | 490 |  | CS(=O)(=O)CC(=O)Nc1c2c(nn1Cc1ccon1)C[C@]1(CCc3cc(OCC(F)(F)F)ccc31)NC2=O [Compound I-260]
19 | 16 |  | CS(=O)(=O)CC(=O)Nc1c2c(nn1CCc1ccc(F)cc1)C[C@]1(CCc3cc(OCC(F)(F)F)ccc31)NC2=O [Compound I-261]
20 | 34 |  | COc1ccc(-n2nc3c(c2NC(=O)CS(C)(=O)=O)C(=O)N[C@@]2(CCc4cc(OCC(F)(F)F)ccc42)C3)nc1 [Compound I-262]
21 | 4.7 |  | Cc1ccc(-n2nc3c(c2NC(=O)CS(C)(=O)=O)C(=O)N[C@@]2(CCc4cc(OCC(F)(F)F)ccc42)C3)nn1 [Compound I-263]

Row | IC50 [1] [nM] | IC50 [2] [nM] | SMILES
22 | 86 |  | Cc1cnc(-n2nc3c(c2NC(=O)CS(C)(=O)=O)C(=O)N[C@@]2(CCc4cc(OCC(F)(F)F)ccc42)C3)cn1 [Compound I-264]
23 | 36 |  | CS(=O)(=O)CC(=O)Nc1c2c(nn1-c1cccnn1)C[C@]1(CCc3cc(OCC(F)(F)F)ccc31)NC2=O [Compound I-265]
24 | 4.6 |  | Cc1ccc(-n2nc3c(c2NC(=O)CS(C)(=O)=O)C(=O)N[C@]2(CCc4cc(OCC(F)(F)F)ccc42)C3)cc1 [Compound I-266]
25 | 9.8 |  | Cc1cccc(-n2nc3c(c2NC(=O)CS(C)(=O)=O)C(=O)N[C@]2(CCc4cc(OCC(F)(F)F)ccc42)C3)c1 [Compound I-267]
26 | 5.5 |  | CS(=O)(=O)CC(=O)Nc1c2c(nn1-c1ccc(F)cc1)C[C@@]1(CCc3cc(OCC(F)(F)F)ccc31)NC2=O [Compound I-269]
27 | 2.8 |  | Cc1ccc(-n2nc3c(c2NC(=O)CS(C)(=O)=O)C(=O)N[C@]2(CCc4cc(OCC(F)(F)F)ccc42)C3)nc1 [Compound I-270]
28 | 780 |  | CS(=O)(=O)CC(=O)Nc1c2c(nn1-c1cnccn1)C[C@@]1(CCc3cc(OCC(F)(F)F)ccc31)NC2=O [Compound I-271]
29 | 20 |  | CS(=O)(=O)CC(=O)Nc1c2c(nn1-c1ccncn1)C[C@@]1(CCc3cc(OCC(F)(F)F)ccc31)NC2=O [Compound I-272]
30 | 20 |  | CS(=O)(=O)CC(=O)Nc1c2c(nn1C1CCCCC1)C[C@@]1(CCc3cc(OCC(F)(F)F)ccc31)NC2=O [Compound I-273]
31 | 3.9 |  | Cc1ccc(-n2nc3c(c2NC(=O)CS(C)(=O)=O)C(=O)N[C@@]2(CCOc4cc(OCC(F)(F)F)ccc42)C3)cc1 [Compound I-274]
32 | 29 |  | O=C1N[C@@]2(CCc3cc(OCC(F)(F)F)cc(F)c32)Cc2nn(CCC3CC3)c(-c3nnn[nH]3)c21 [Compound I-278]
33 | 50.5 |  | CS(=O)(=O)NC(=O)c1c2c(nn1CCC1CC1)C[C@]1(CCc3cc(OCC(F)(F)F)ccc31)NC2=O [Compound I-279]
34 | 48 |  | O=C1N[C@@]2(CCc3cc(OCC(F)(F)F)ccc32)Cc2nn(CCC3CC3)c(-c3nn[nH]n3)c21 [Compound I-280]
35 | 72 |  | CS(=O)(=O)CC(=O)Nc1c2c(nn1CCC1CC1)C[C@]1(CCc3cc(CN4CC(F)(F)C4)ccc31)NC2=O [Compound I-281]
36 | 9.35 |  | CS(=O)(=O)CC(=O)Nc1c2c(nn1-c1ccc(C#N)cn1)C[C@]1(CCc3cc(F)cc(F)c31)NC2=O [Compound I-284]
37 | 3.5 |  | CS(=O)(=O)CC(=O)Nc1c2c(nn1-c1ccc(C(F)(F)F)cn1)C[C@]1(CCc3cc(F)cc(F)c31)NC2=O [Compound I-285]
38 |  | 46 | CS(=O)(=O)CC(=O)Nc1c2c(nn1CCC1CC1)C1(Cc3ccc(OCC(F)(F)F)cc3C1)NC2=O (stereo not drawn) [II-1]
39 |  | 32 | CS(=O)(=O)CC(=O)Nc1c2c(nn1-c1ccc(C#N)cn1)C1(Cc3cc(F)c(F)cc3C1)NC2=O [II-4]
40 |  | 4.6 | Cc1cccc(-n2nc3c(c2NC(=O)CS(C)(=O)=O)C(=O)N[C@@]2(CCOc4cc(OCC(F)(F)F)ccc42)C3)c1 [II-5]
41 |  | 19 | COc1ccc(-n2nc3c(c2NC(=O)CS(C)(=O)=O)C(=O)N[C@@]2(CCOc4cc(OCC(F)(F)F)ccc42)C3)cc1 [II-6]
42 |  | 20 | CS(=O)(=O)CC(=O)Nc1c2c(nn1-c1ccncn1)C[C@]1(CCOc3cc(OCC(F)(F)F)ccc31)NC2=O [II-7]

Row | IC50 [1] [nM] | IC50 [2] [nM] | SMILES
43 |  | 9.5 | CS(=O)(=O)CC(=O)Nc1c2c(nn1CCC1CC1)C[C@@]1(CCOc3cc(OCC(F)(F)F)ccc31)NC2=O [II-9]
44 |  | 64 | CS(=O)(=O)CC(=O)Nc1c2c(nn1C1CC3(COC3)C1)C[C@]1(CCc3cc(OCC(F)(F)F)ccc31)NC2=O [II-11]
45 |  | 35 | CS(=O)(=O)CC(=O)Nc1c2c(nn1CC1CC(F)(F)C1)C[C@]1(CCc3cc(OCC(F)(F)F)ccc31)NC2=O [II-12]
46 |  | 27 | CS(=O)(=O)CC(=O)Nc1c2c(nn1CCc1ccccc1F)C[C@]1(CCc3cc(OCC(F)(F)F)ccc31)NC2=O [II-13]
47 |  | 12 | CS(=O)(=O)CC(=O)Nc1c2c(nn1C1CCCCC1)C[C@]1(CCOc3cc(OCC(F)(F)F)ccc31)NC2=O [II-15]
48 |  | 28 | CS(=O)(=O)CC(=O)Nc1c2c(nn1-c1ccc(C#N)cn1)CC1(CN(Cc3ccc(C(F)(F)F)cc3)C1)NC2=O [II-16]
49 |  | 38 | CS(=O)(=O)CC(=O)Nc1c2c(nn1-c1ccc(C#N)cn1)C[C@](c1ccc(OCC(F)(F)F)cc1)(C(F)(F)F)NC2=O [II-17]
50 |  | 47 | CS(=O)(=O)CC(=O)Nc1c2c(nn1CCOCC(F)F)C[C@@]1(CCc3cc(OCC(F)(F)F)ccc31)NC2=O [II-18]
51 |  | 12 | CS(=O)(=O)CC(=O)Nc1c2c(nn1CCCCC(F)(F)F)C[C@@]1(CCc3cc(OCC(F)(F)F)ccc31)NC2=O [II-19]
52 |  | 1.56 | CS(=O)(=O)CC(=O)Nc1c2c(nn1CCCOC(F)(F)F)C[C@@]1(CCc3cc(OCC(F)(F)F)ccc31)NC2=O [II-20]
53 |  | 17 | COCCCn1nc2c(c1NC(=O)CS(C)(=O)=O)C(=O)N[C@]1(CCc3cc(OCC(F)(F)F)ccc31)C2 [II-21]
54 |  | 32 | CS(=O)(=O)CC(=O)Nc1c2c(nn1CCn1cccn1)C[C@@]1(CCc3cc(OCC(F)(F)F)ccc31)NC2=O [II-22]
55 |  | 18 | CS(=O)(=O)CC(=O)Nc1c2c(nn1CCc1ccc(F)cc1)C[C@@]1(CCc3cc(OCC(F)(F)F)ccc31)NC2=O [II-23]
56 |  | 32 | CS(=O)(=O)CC(=O)Nc1c2c(nn1CCOCC(F)F)C[C@]1(CCOc3cc(OCC(F)(F)F)ccc31)NC2=O [II-24]
57 |  | 7 | CS(=O)(=O)CC(=O)Nc1c2c(nn1CCCCC(F)(F)F)C[C@]1(CCOc3cc(OCC(F)(F)F)ccc31)NC2=O [II-25]
58 |  | 9.5 | COCCCn1nc2c(c1NC(=O)CS(C)(=O)=O)C(=O)N[C@@]1(CCOc3cc(OCC(F)(F)F)ccc31)C2 [II-26]
59 |  | 21 | CS(=O)(=O)CC(=O)Nc1c2c(nn1CCn1cccn1)C[C@]1(CCOc3cc(OCC(F)(F)F)ccc31)NC2=O [II-27]
60 |  | 8.7 | CS(=O)(=O)CC(=O)Nc1c2c(nn1CCc1ccc(F)cc1)C[C@]1(CCOc3cc(OCC(F)(F)F)ccc31)NC2=O [II-28]
61 |  | 220 | CS(=O)(=O)CC(=O)Nc1c2c(nn1-c1ccc(C#N)cn1)CC1(CN(C(=O)c3ccc(C(F)(F)F)cc3)C1)NC2=O [II-29]
62 |  | 8.7 | CS(=O)(=O)CC(=O)Nc1c2c(nn1-c1ccc(C#N)cn1)C[C@]1(CCc3cc(Br)ccc31)NC2=O [II-30]
63 |  | 17 | CS(=O)(=O)CC(=O)Nc1c2c(nn1CCC1CC1)C[C@@]1(CCc3cc(NC4CC(F)(F)C4)ccc31)NC2=O [II-32]
